Test results published in ChEMBL document CHEMBL4842381, “A Novel, Selective c-Abl Inhibitor, Compound 5, Prevents Neurodegeneration in Parkinson's Disease” (J Med Chem, 2021).

Legend:
in vivo [1] = conditions: ICR, mouse, plasma, po, 5 mg/kg
in vivo [2] = conditions: ICR, mouse, plasma, po, 5 mg/kg; remark: listed apart in the source
in vivo [3] = conditions: ICR, mouse, plasma, po, 5 mg/kg; remark: listed apart in the source
in vivo [4] = conditions: ICR, mouse, plasma, po, 5 mg/kg; remark: listed apart in the source
in vivo [5] = conditions: ICR, mouse, brain/plasma, po, 5 mg/kg

half-life at 24 h (in vivo [1]) [h]	Tmax at 24 h (in vivo [2]) [h]	Cmax at 24 h (in vivo [3]) [µg/mL]	AUC(0-inf) at 24 h (in vivo [4]) [µg·h/mL]	Kp uu at 24 h (in vivo [5])	SMILES
1.8	1.2	4.26	25	0.21	Cc1c(F)cncc1-c1ccc2nc(NC(=O)[C@@H]3C[C@@H]3F)sc2c1
	1				Cc1cn(-c2cc(NC(=O)c3ccc(C)c(Nc4nccc(-c5cccnc5)n4)c3)cc(C(F)(F)F)c2)cn1 [NILOTINIB]
